These results are taken from patent publication US10472344B2, “Factor XIa inhibitors” (MERCK SHARP & DOHME CORP., priority 2015, dated 2019).

The target of assay [1] is purified human Factor XIa (Homo sapiens (Human), UniProt P03951). Kind of assay: Factor XIa Assay. The following applies: fluorogenic substrate Z-Gly-Pro-Arg-AFC, 40 pM enzyme, pH 7.4; read-out: Human FXIa Ki. It counts as biochemical. The method, then:
(§1) The effectiveness of a compound of the present invention as an inhibitor of Coagulation Factor XIa can be determined using a relevant purified serine protease, and an appropriate synthetic substrate. The rate of hydrolysis of the chromogenic or fluorogenic substrate by the relevant serine protease was measured both in the absence and presence of compounds of the present invention. Assays were conducted at room temperature or at 37° C. […] A decrease in the rate of fluorescence change in the presence of inhibitor is indicative of enzyme inhibition. Such methods are known to one skilled in the art. The results of this assay are expressed as the inhibitory constant, Ki.
Factor XIa determinations were made in 50 mM HEPES buffer at pH 7.4 containing 150 mM NaCl, 5 mM CaCl2, and 0.1% PEG 8000 (polyethylene glycol; JT Baker or Fisher Scientific). Determinations were made using purified human Factor XIa at a final concentration of 40 pM (Sekisui Diagnostics) and he synthetic substrate, Z-Gly-Pro-Arg-AFC, TFA salt (Sigma #C0980) at a concentration of […].
Activity assays were performed by diluting a stock solution of substrate at least tenfold to a final concentration ≤0.1 Km into a solution containing enzyme or enzyme equilibrated with inhibitor. Times required to achieve equilibration between enzyme and inhibitor were determined in control experiments. Initial velocities of product formation in the absence (V0) or presence of inhibitor (V1) were measured. Assuming competitive inhibition, and that unity is negligible compared Km/[S], [I]/e, and [I]/e (where [S], [I], and e respectively represent the total concentrations, of substrate, inhibitor and enzyme), the equilibrium constant (Ki) for dissociation of the inhibitor from the enzyme can be obtained from the dependence of V0/Vi on [I] shown in the following equation. V0/Vi=1+[I]/Ki

Assay [2] deals with purified Human plasma kallikrein (Homo sapiens (Human), UniProt P03952). Kind of assay: Kallikrein Assay. The format is biochemical. The following applies: fluorogenic substrate Acetyl-K-P-R-AFC, 0.5 nM enzyme, pH 7.4; Ki from IC50 by Cheng Prusoff. The method, then: as §1, with “Kallikrein” for “Coagulation Factor XIa”
Sequence of purified Human plasma kallikrein (P03952 391-638): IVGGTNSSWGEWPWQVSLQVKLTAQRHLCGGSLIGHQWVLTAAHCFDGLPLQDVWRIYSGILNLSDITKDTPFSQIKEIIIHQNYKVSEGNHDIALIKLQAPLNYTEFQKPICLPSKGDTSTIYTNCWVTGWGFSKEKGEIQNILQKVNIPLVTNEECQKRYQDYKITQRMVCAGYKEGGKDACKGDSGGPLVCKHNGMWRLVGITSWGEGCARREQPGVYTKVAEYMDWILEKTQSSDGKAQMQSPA
Sequence of purified Human plasma kallikrein (P03952 20-390 partner): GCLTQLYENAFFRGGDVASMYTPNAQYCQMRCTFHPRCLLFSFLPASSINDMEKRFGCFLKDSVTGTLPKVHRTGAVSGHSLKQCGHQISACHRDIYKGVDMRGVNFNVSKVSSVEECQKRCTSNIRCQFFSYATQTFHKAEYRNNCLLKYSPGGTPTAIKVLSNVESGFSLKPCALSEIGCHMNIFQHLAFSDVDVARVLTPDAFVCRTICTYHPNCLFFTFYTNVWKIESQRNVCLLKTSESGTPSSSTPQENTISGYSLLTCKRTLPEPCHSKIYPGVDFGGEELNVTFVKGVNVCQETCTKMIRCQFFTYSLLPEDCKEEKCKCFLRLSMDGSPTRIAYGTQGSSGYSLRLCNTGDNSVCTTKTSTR
Kallikrein determinations were made in 50 mM HEPES buffer at pH 7.4 containing 150 mM NaCl, 5 mM CaCl2, and 0.1% PEG 8000 (polyethylene glycol; Fisher Scientific). Determinations were made using purified Human plasma kallikrein at a final concentration of 0.5 nM (Enzyme Research Laboratories) and the synthetic substrate, Acetyl-K-P-R-AFC (Sigma #C6608) at a concentration of […].
Activity assays were performed by diluting a stock solution of substrate at least tenfold to a final concentration≤0.2 Km into a solution containing enzyme or enzyme equilibrated with inhibitor. Times required to achieve equilibration between enzyme and inhibitor were determined in control experiments. The reactions were performed under linear progress curve conditions and fluorescence increase measured at 405 Ex/510 Em nm. Values were converted to percent inhibition of the control reaction (after subtracting 100% Inhibition value). IC50 was determined by inflection point from a four parameter logistic curve fit. Ki was calculated using the Cheng Prusoff equation, Ki=IC50/(1+([S]/Km)).

Sequence of purified human Factor XIa (P03951 388-625): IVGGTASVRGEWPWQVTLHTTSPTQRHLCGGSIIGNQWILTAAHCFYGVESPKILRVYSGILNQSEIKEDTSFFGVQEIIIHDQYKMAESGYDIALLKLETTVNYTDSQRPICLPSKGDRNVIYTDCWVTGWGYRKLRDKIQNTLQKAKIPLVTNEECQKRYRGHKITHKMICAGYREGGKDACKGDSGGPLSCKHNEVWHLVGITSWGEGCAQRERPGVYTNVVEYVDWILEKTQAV
Sequence of purified human Factor XIa (P03951 19-387 partner): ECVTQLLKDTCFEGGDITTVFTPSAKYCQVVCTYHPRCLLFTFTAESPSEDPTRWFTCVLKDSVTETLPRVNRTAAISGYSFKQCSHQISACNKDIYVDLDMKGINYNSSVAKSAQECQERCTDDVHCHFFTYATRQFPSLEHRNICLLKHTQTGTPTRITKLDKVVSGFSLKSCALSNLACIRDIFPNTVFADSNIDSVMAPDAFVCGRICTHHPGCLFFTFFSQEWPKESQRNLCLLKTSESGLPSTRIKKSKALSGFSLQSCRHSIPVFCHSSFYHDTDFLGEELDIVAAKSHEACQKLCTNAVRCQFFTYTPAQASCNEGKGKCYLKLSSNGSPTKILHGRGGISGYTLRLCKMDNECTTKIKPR

For the compound `Nc1n[nH]c2cc(C(=O)N[C@@H](Cc3ccccc3)c3ccc(-c4cc(Cl)ccc4-n4cnnn4)c[n+]3[O-])ccc12` [Example 1, (S)-2-(1-(3-AMMONIO-1H-INDAZOLE-6-CARBOXAMIDO)-2-PHENYLETHYL)-5-(5-CHLORO-2-(1H-TETRAZOL-1-YL)PHENYL)PYRIDINE 1-OXIDE 2,2,2-TRIFLUOROACETATE], the Ki in assay [1] was found to be 0.9 nM; in assay [2], 25 nM.

Regarding `COC(=O)Nc1ccc(C(=O)N[C@@H](Cc2ccccc2)c2ccc(-c3cc(Cl)ccc3-n3cnnn3)c[n+]2[O-])cc1` [Example 2, (S)-5-(5-chloro-2-(1H-tetrazol-1-yl)phenyl)-2-(1-(4-((methoxycarbonyl)amino)benzamido)-2-phenylethyl)pyridine 1-oxide], the values for the Ki in assay [1] and in assay [2] were 3.6 nM and 105 nM, respectively.

Regarding `COC(=O)Nc1cccc(C(=O)NC(Cc2ccccc2)c2ccc(-c3cc(Cl)ccc3-n3cnnn3)c[n+]2[O-])c1` (stereo not drawn) [Example 3], the Ki in assay [1] was determined as 144 nM.

As to `NC(=O)c1ccc(C(=O)N[C@@H](Cc2ccccc2)c2ccc(-c3cc(Cl)ccc3-n3cnnn3)c[n+]2[O-])s1` [Example 4], the Ki in assay [1] is 1.3 nM; in assay [2], 36 nM.

As to `O=C(O)c1ccc(C(=O)NC(Cc2ccccc2)c2ccc(-c3cc(Cl)ccc3-n3cnnn3)c[n+]2[O-])cc1` (stereo not drawn) [Example 5], the Ki in assay [1] is 83 nM.

In the case of `O=C(O)c1ccc(C(=O)N[C@@H](Cc2ccccc2)c2ccc(-c3cc(Cl)ccc3-n3cnnn3)c[n+]2[O-])s1` [Example 6], the Ki in assay [1] was 6.9 nM; in assay [2] it was 219 nM.

`COCC(=O)Nc1ccc(C(=O)N[C@@H](Cc2ccccc2)c2ccc(-c3cc(Cl)ccc3-n3cnnn3)c[n+]2[O-])cc1` [Example 7]: the Ki in assay [1] was 20 nM; in assay [2], 516 nM.

For orientation: Ki means a measure of affinity in units of concentration, obtained from inhibition or displacement.
